Assay results: patent EP0520823A2, “Non-substrate peptide inhibitors of farnesyl protein transferase” (MERCK & CO. INC., priority 1991, dated 1992)
Where a SMILES comes first, the peptide text is derived from it. [ ]: non-standard residue; d: D form.

What was measured:
[1] = test system: partially pure bovine brain farnesyl-protein transferase; assay: Tetrapeptides tested as farnesylation substrates ([3H]FPP, TLC, autoradiography); format: biochemical; settings: peptide 200 µM, 0.5 µM [3H] FPP, 30 min. at 30°C
Experimental: When a peptide was used as the acceptor substrate, there were two changes to the assay: (1) Ras protein was excluded and, (2) the reactions were stopped by the additon of one tenth volume of 0.5 M EDTA. […] After drying under vacuum, the plates were sprayed with […] exposed to X-ray film at -70°C. […] These Rf values reflect TLC conditions using ethylacetate:pyridine: acetic acid:water (10:5:1:3) as the eluent. […] CAIS (Rf=0.84) and CAIM (Rf=0.83)). Quenched reaction mixtures containing peptide, farnesyldiphosphate and farnesyl-protein transferase were separated by TLC followed by visualization of the radioactive species by autoradiography. […] Control peptides having a […] substitution were not substrates. […] Autoradiographic exposure time was overnight (15-20 hr).

[2] = molecular target: T1, Farnesyl-protein transferase from bovine brain (partially purified) (Bos taurus, UniProt P29702+P49355); assay: Inhibition of Ras farnesylation by tetrapeptides; format: biochemical; settings: Ras-CVLS at 3.5 µM, 0.25 µM [³H]FPP; average of 2-5 determinations
T1 construct: Cerebral lobes from bovine brains were homogenized in lysis buffer; from tissue; host or cells: bovine brain (cerebral lobes)
Experimental: The quenched reactions were allowed to stand for 15 minutes (to complete the precipitation process).
Fractions (20 mL) were collected and those containing farnesyl-protein transferase activity were pooled.
Single capital letter amino acid abbreviations are used above.

[3] = test system: bovine brain farnesyl-protein transferase; settings: earlier findings (Schaber et al.); cited from earlier work

Compound	IC50 [2] [µM]	Farnesylation substrate [1]	substrate for isoprenylation [3]
CC(C)C[C@@H](NC(=O)[C@@H](NC(=O)[C@@H](N)CS)C(C)C)C(=O)N[C@@H](CO)C(=O)O [CV(dL)S, Cys-Val-D-Leu-Ser]	20	- (- < 1% conversion)	–
CC(=O)N[C@@H](CS)C(=O)N[C@H](C(=O)N[C@@H](CC(C)C)C(=O)N[C@@H](CO)C(=O)O)C(C)C [N-Ac-CVLS] (Ac-CVLS-OH)	2	+ (+ > 90% [^3H] farnesyl diphosphate converted to [^3H] farnesyl tetrapeptide)	–
SSGCVLS [heptapeptide SSGCVLS]	–	–	served as a substrate for isoprenylation
CSCC[C@H](NC(=O)[C@@H](Cc1ccccc1)NC(=O)[C@@H](NC(=O)[C@@H](N)CS)C(C)C)C(=O)O [CV(dF)M, Cys-Val-D-Phe-Met]	–	- (- < 1% conversion)	–
CC(C)C[C@H](NC(=O)[C@@H](NC(=O)[C@@H](N)CS)C(C)C)C(=O)N[C@H](CO)C(=O)O [CVL(dS)]	11	+ (+ > 90% [^3H] farnesyl diphosphate converted to [^3H] farnesyl tetrapeptide)	–
CC(=O)N[C@H](CS)C(=O)N[C@H](C(=O)N[C@@H](CC(C)C)C(=O)N[C@@H](CO)C(=O)O)C(C)C [N-Ac-(dC)VLS] (Ac-[dC]VLS-OH)	60	+ (+ > 90% [^3H] farnesyl diphosphate converted to [^3H] farnesyl tetrapeptide)	–
CC(C)C[C@H](NC(=O)[C@@H](NC(=O)[C@@H](N)CO)C(C)C)C(=O)N[C@@H](CO)C(=O)O [SVLS] (H-SVLS-OH)	–	- (- < 1% conversion)	–
